Entries after “also recorded” stand apart in the source; their conditions may differ.
Columns and labels:
IL-8 = IL-8 release by PMA-stimulated NHEK (ELISA); format: cell-based, human; conditions: for Effect on IL-8 release (in words): PMA-stimulated keratinocytes; for IL-8 release, % Relative inhibition: NHEK, PMA 0.5 μg/ml, 24 h
Protocol: (§1) The effects on normal human epidermal keratinocytes (NHEK) were measured by assessing IL-8 and PGE2 release by PMA-stimulated NHEK using specific ELISA kits.
(§2) Normal human epidermal keratinocytes (NHEK): • Cell type: NHEK • Culture conditions: 37° C., 5% CO2 • Culture medium: Keratinocyte SFM supplemented with Epidermal Growth Factor (EGF) 0.25 ng/ml • Pituitary extract (PE) 25 μg/ml • Gentamycin 25 μg/ml • Assay medium 1: Epilife® medium supplemented with PE 0.2% • Bovine transferrin 5 μg/ml • EGF 0.2 ng/ml • Insulin 5 μg/ml • Gentamycin/Amphotericin • Assay medium 2: Keratinocyte SFM supplemented with Gentamycin 25 μg/ml
(§3) Keratinocytes were seeded in 96-well plates and cultured for 24 hours in culture medium. […] After pre-incubation, the medium was removed and replacedby assay medium 1 containing or not (stimulated control) the compounds or the reference compound and containing the inducer (PMA tested at 0.5 μg/ml). The cells were then incubated for 24 hours. In parallel, a non-stimulated control condition was performed.
(§4) All experimental conditions were performed in n=3. At the end of incubation, the culture supernatants were collected for IL-8 and PGE2 quantifications.
(§5) IL-8 and PGE2 released in the culture supernatants were measured using specific ELISA kits according to the supplier's instructions.

PGE2 = PGE2 release by PMA-stimulated NHEK (ELISA); format: cell-based, human; conditions: for PGE2 release, % of the control: highest tested concentration; for PGE2 release, % of the control / Effect on PGE2 release (in words) / PGE2 release, % of relative inhibition: PMA-stimulated keratinocytes; for PGE2 release, % of relative inhibition: concentration not given; for PGE2 release, % Relative inhibition: NHEK, PMA 0.5 μg/ml, 24 h
Protocol: as §1, §2, §3, §4, §5

## C=C(C)[C@@H]1CCC(C)=C[C@H]1c1c(O)cc(CCCCC)cc1O [CBD, cannabidiol, reference compound]
IL-8; tested at 0.3 μM
  Effect on IL-8 release (in words): overstimulated IL-8 release
PGE2
  PGE2 release, % of the control: 185%

## C=C(C)[C@@H]1CCC(C)=C[C@H]1c1c(O)cc(CCCCC)c(C(=O)O)c1O [CBDA, cannabidiolic acid, reference compound]
PGE2
  Effect on PGE2 release (in words): did not modulate

## CCCCCc1cc(O)c(C/C=C(\C)CCC=C(C)C)c(O)c1 [CBG, cannabigerol]
IL-8; concentration not given
  Effect on IL-8 release (in words): significantly inhibited
IL-8; tested at 3 (unit not given)
  Effect on IL-8 release (in words): strongly inhibited
PGE2
  Effect on PGE2 release (in words): significant at all tested concentrations; also recorded: significantly inhibited
  PGE2 release, % of relative inhibition: about 160%

## CCCCCc1cc(O)c(C/C=C(\C)CCC=C(C)C)c(O)c1C(=O)O [CBGA, cannabigerolic acid, reference compound]
PGE2
  PGE2 release, % of the control: 182%

## CCCc1cc(O)c(C/C=C(\C)CCC=C(C)C)c(O)c1C(=O)O [CBGVA, cannabigerovarinic acid]
IL-8; 0.1 μM
  IL-8 release, % Relative inhibition: 2%
IL-8; 0.3 μM
  IL-8 release, % Relative inhibition: 11%
IL-8; 1 μM
  IL-8 release, % Relative inhibition: 9%
PGE2; 0.1 μM
  PGE2 release, % Relative inhibition: 19%
PGE2; 0.3 μM
  PGE2 release, % Relative inhibition: 65%
PGE2; 1 μM
  PGE2 release, % Relative inhibition: >162%
PGE2
  Effect on PGE2 release (in words): significant effect only when tested at the highest concentration; also recorded: inhibited
  PGE2 release, % of relative inhibition: about 160%

## COc1ccc2c(c1)c(CC(=O)O)c(C)n2C(=O)c1ccc(Cl)cc1 [Indomethacin, indomethacin, reference compound]
PGE2; 1 μM
  PGE2 release, % Relative inhibition: >169%

## O=C1O[C@H]([C@@H](O)CO)C(O)=C1O [L-Ascorbic acid, reference compound]
PGE2
  Effect on PGE2 release (in words): overall the same effect at all tested concentrations; also recorded: significantly limited
  PGE2 release, % of relative inhibition: ~145%
